Measured values reported in paper PMC6153800, “Structure-Based Drug Design and Characterization of Sulfonyl-Piperazine Benzothiazinone Inhibitors of DprE1 from Mycobacterium tuberculosis” (Antimicrobial Agents and Chemotherapy, 2018).
Values after ≈ are worked out from the molar mass of the structure shown.

Tested on: M. tuberculosis NTB1 (DprE1 C387S mutant)
Format: cell-based, Mycobacterium tuberculosis

Structure (SMILES): O=c1nc(N2CCN(CC3CCCCC3)CC2)sc2c([N+](=O)[O-])cc(C(F)(F)F)cc12 [PBTZ169, macozinone, reference compound]
- MIC99 NTB1: >100 µg/mL

Structure (SMILES): CO[C@H]1/C=C/O[C@@]2(C)Oc3c(C)c(O)c4c(O)c(c(/C=N/N5CCN(C)CC5)c(O)c4c3C2=O)NC(=O)/C(C)=C\C=C\[C@H](C)[C@H](O)[C@@H](C)[C@@H](O)[C@@H](C)[C@H](OC(C)=O)[C@@H]1C [Rifampin, reference compound]
- MIC99 NTB1: 0.0008 µg/mL (≈ 0.000972 µM)

Structure (SMILES): O=c1nc(N2CCN(S(=O)(=O)c3cccs3)CC2)sc2c([N+](=O)[O-])cc(C(F)(F)F)cc12 [compound 11326059]
- MIC99 NTB1: >100 µg/mL

Structure (SMILES): O=c1nc(N2CCN(S(=O)(=O)C3CCCCC3)CC2)sc2c([N+](=O)[O-])cc(C(F)(F)F)cc12 [compound 11326127]
- MIC99 NTB1: >100 µg/mL

Structure (SMILES): O=c1nc(N2CCN(S(=O)(=O)C3CC3)CC2)sc2c([N+](=O)[O-])cc(C(F)(F)F)cc12 [compound 11626091]
- MIC99 NTB1: 14.7 µg/mL (≈ 31.7 µM)

Structure (SMILES): CCS(=O)(=O)N1CCN(c2nc(=O)c3cc(C(F)(F)F)cc([N+](=O)[O-])c3s2)CC1 [compound 11626092]
- MIC99 NTB1: 25.1 µg/mL (≈ 55.5 µM)

Structure (SMILES): CCCCS(=O)(=O)N1CCN(c2nc(=O)c3cc(C(F)(F)F)cc([N+](=O)[O-])c3s2)CC1 [compound 11626093]
- MIC99 NTB1: >100 µg/mL

Structure (SMILES): O=c1nc(N2CCN(S(=O)(=O)c3cccc4cnccc34)CC2)sc2c([N+](=O)[O-])cc(C(F)(F)F)cc12 [compound 11626094]
- MIC99 NTB1: >100 µg/mL

Structure (SMILES): CS(=O)(=O)N1CCN(c2nc(=O)c3cc(C(F)(F)F)cc([N+](=O)[O-])c3s2)CC1 [compound 11626095]
- MIC99 NTB1: 75 µg/mL (≈ 171 µM)
